Earlier results in US10071072B2, “Method for treating neurotrauma” (N.V. Nutricia, priority 2011, dated 2018).

Tested on: neurotrauma
Conditions: in vivo supply; King et al. J. Neurosci.

## CC/C=C\C/C=C\C/C=C\CCCCCCCC(=O)O [α-linolenic acid]
  neuroprotection in neurotrauma: neuroprotective
